# According to BindingDB's records for doi:10.1016/j.ejmech.2017.05.048 (University of Auckland, 2017):
# Test: Inhibition of perforin (unknown origin)-mediated 51Cr-labelled human Jurkat cell lysis preincubated with protein for 30 mins followed by cell addition measured after 4 hrs by gamma counting method
row,SMILES,IC50
1,COC(=O)c1ccccc1S(=O)(=O)Nc1cncc(-c2ccc(-c3ccc4c(c3)CN(C)C4=O)s2)c1,2.9 µM
2,CN1Cc2cc(-c3ccc(-c4cncc(NS(=O)(=O)c5cccc(Cl)c5F)c4)s3)ccc2C1=O,13 µM
3,CN1Cc2cc(-c3ccc(-c4cncc(NS(=O)(=O)c5ccc(-c6cnco6)cc5)c4)s3)ccc2C1=O,3.05 µM
4,CN1Cc2cc(-c3ccc(-c4cncc(NS(=O)(=O)c5ccccc5OC(F)(F)F)c4)s3)ccc2C1=O,17.7 µM
5,CN1Cc2cc(-c3ccc(-c4ccc(OC(F)(F)F)c(NS(=O)(=O)c5ccccn5)c4)s3)ccc2C1=O,> 20 µM
6,CN1Cc2cc(-c3ccc(-c4cncc(NC(=O)c5ccc(F)cc5F)c4)s3)ccc2C1=O,> 20 µM
7,CN1Cc2cc(-c3ccc(-c4cncc(NS(=O)(=O)c5ccc(Cl)cc5)c4)s3)ccc2C1=O,5.39 µM
8,CN1Cc2cc(-c3ccc(-c4cccc(S(=O)(=O)Nc5ccccn5)c4)s3)ccc2C1=O,8.92 µM
9,CN1Cc2cc(-c3ccc(-c4cncc(NS(=O)(=O)c5cccc(Cl)c5)c4)s3)ccc2C1=O,2.42 µM
10,CN1Cc2cc(-c3ccc(-c4cncc(NS(=O)(=O)c5cccc(C(F)(F)F)c5)c4)s3)ccc2C1=O,1.22 µM
11,CN1Cc2cc(-c3ccc(-c4cncc(NS(=O)(=O)c5cccc(C#N)c5)c4)s3)ccc2C1=O,> 20 µM
12,CCOC(=O)c1ccc(S(=O)(=O)Nc2cncc(-c3ccc(-c4ccc5c(c4)CN(C)C5=O)s3)c2)cc1,19.4 µM
13,CN1Cc2cc(-c3ccc(-c4cncc(NS(=O)(=O)c5ccccc5[N+](=O)[O-])c4)s3)ccc2C1=O,6.65 µM
14,Cc1ccc(S(=O)(=O)Nc2cncc(-c3ccc(-c4ccc5c(c4)CN(C)C5=O)s3)c2)cc1Cl,8.14 µM
15,CN1Cc2cc(-c3ccc(-c4cncc(NS(=O)(=O)c5cccnc5)c4)s3)ccc2C1=O,15.1 µM
16,CN1Cc2cc(-c3ccc(-c4cncc(NS(=O)(=O)c5ccc6c(c5)OCCO6)c4)s3)ccc2C1=O,> 20 µM
17,CN1Cc2cc(-c3ccc(-c4cncc(NS(=O)(=O)c5ccccc5F)c4)s3)ccc2C1=O,2.03 µM
18,CN1Cc2cc(-c3ccc(-c4cc(NS(=O)(=O)c5ccccn5)ccc4F)s3)ccc2C1=O,> 20 µM
19,CN1Cc2cc(-c3ccc(-c4cnc(Cl)c(NS(=O)(=O)c5ccc(F)cc5F)c4)s3)ccc2C1=O,1.03 µM
20,CN1Cc2cc(-c3ccc(-c4ccc(NS(=O)(=O)c5ccc(F)cc5F)nc4)s3)ccc2C1=O,> 20 µM
21,CN1Cc2cc(-c3ccc(-c4cncc(NS(=O)(=O)c5ccc(F)c(F)c5)c4)s3)ccc2C1=O,18.6 µM
22,CN1Cc2cc(-c3ccc(-c4cncc(NS(=O)(=O)c5ccccc5Br)c4)s3)ccc2C1=O,2.66 µM
23,CN1Cc2cc(-c3ccc(-c4cncc(NS(=O)(=O)c5ccc(I)cc5)c4)s3)ccc2C1=O,5 µM
24,COc1ccc(S(=O)(=O)Nc2cncc(-c3ccc(-c4ccc5c(c4)CN(C)C5=O)s3)c2)cc1,6.27 µM

row,SMILES,IC50
1,COC(=O)c1cccc(S(=O)(=O)Nc2cncc(-c3ccc(-c4ccc5c(c4)CN(C)C5=O)s3)c2)c1,7.77 µM
2,CN1Cc2cc(-c3ccc(-c4cnc(F)c(NS(=O)(=O)c5ccccn5)c4)s3)ccc2C1=O,4.1 µM
3,COc1ccc(-c2ccc(-c3ccc4c(c3)CN(C)C4=O)s2)cc1S(=O)(=O)Nc1ccccn1,9.68 µM
4,Cc1ccc(S(=O)(=O)Nc2ccccn2)cc1-c1ccc(-c2ccc3c(c2)CN(C)C3=O)s1,> 20 µM
5,Cc1ccc(NS(=O)(=O)c2ccccn2)cc1-c1ccc(-c2ccc3c(c2)CN(C)C3=O)s1,15.4 µM
6,COc1ncc(-c2ccc(-c3ccc4c(c3)CN(C)C4=O)s2)cc1NS(=O)(=O)c1ccc(F)cc1F,3.56 µM
7,CN1Cc2cc(-c3ccc(-c4cnc(F)c(NS(=O)(=O)c5ccc(F)cc5F)c4)s3)ccc2C1=O,1.99 µM
8,CN1Cc2cc(-c3ccc(-c4cncc(S(=O)(=O)Nc5ccc(F)cc5F)c4)s3)ccc2C1=O,2.24 µM
9,CN1Cc2cc(-c3ccc(-c4ccnc(NS(=O)(=O)c5ccc(F)cc5F)c4)s3)ccc2C1=O,4.7 µM
10,CN1Cc2cc(-c3ccc(-c4cncc(NS(=O)(=O)c5ccc(F)cc5)c4)s3)ccc2C1=O,9.65 µM
11,CN1Cc2cc(-c3ccc(-c4cncc(NS(=O)(=O)c5cccc(F)c5)c4)s3)ccc2C1=O,20 µM
12,CN1Cc2cc(-c3ccc(-c4cncc(NS(=O)(=O)c5c(F)cc(F)cc5F)c4)s3)ccc2C1=O,1.76 µM
13,CN1Cc2cc(-c3ccc(-c4cncc(NS(=O)(=O)c5ccc(Cl)c(Cl)c5)c4)s3)ccc2C1=O,1.32 µM
14,CN1Cc2cc(-c3ccc(-c4cncc(NS(=O)(=O)c5ccc(Cl)cc5Cl)c4)s3)ccc2C1=O,15 µM
15,CN1Cc2cc(-c3ccc(-c4cncc(NS(=O)(=O)c5cccc(Br)c5)c4)s3)ccc2C1=O,2.11 µM
16,CN1Cc2cc(-c3ccc(-c4cncc(NS(=O)(=O)c5ccc(Br)cc5Br)c4)s3)ccc2C1=O,2.87 µM
17,COc1ccccc1S(=O)(=O)Nc1cncc(-c2ccc(-c3ccc4c(c3)CN(C)C4=O)s2)c1,14.8 µM
18,COc1cccc(S(=O)(=O)Nc2cncc(-c3ccc(-c4ccc5c(c4)CN(C)C5=O)s3)c2)c1,2.56 µM
19,CN1Cc2cc(-c3ccc(-c4cncc(NS(=O)(=O)c5cccc(OC(F)(F)F)c5)c4)s3)ccc2C1=O,1.42 µM
20,CN1Cc2cc(-c3ccc(-c4cncc(NS(=O)(=O)c5ccc(OC(F)(F)F)cc5)c4)s3)ccc2C1=O,> 20 µM
21,CN1Cc2cc(-c3ccc(-c4cncc(NS(=O)(=O)c5ccccc5C(F)(F)F)c4)s3)ccc2C1=O,1.45 µM
22,CN1Cc2cc(-c3ccc(-c4cncc(NS(=O)(=O)c5ccc(C(F)(F)F)cc5)c4)s3)ccc2C1=O,> 20 µM
23,CN1Cc2cc(-c3ccc(-c4cncc(NS(=O)(=O)c5cc(C(F)(F)F)cc(C(F)(F)F)c5)c4)s3)ccc2C1=O,> 20 µM
24,CN1Cc2cc(-c3ccc(-c4cncc(NS(=O)(=O)c5ccccc5C#N)c4)s3)ccc2C1=O,9.17 µM

row,SMILES,IC50
1,CN1Cc2cc(-c3ccc(-c4cncc(NS(=O)(=O)c5ccc(C#N)cc5)c4)s3)ccc2C1=O,5.17 µM
2,COC(=O)c1ccc(S(=O)(=O)Nc2cncc(-c3ccc(-c4ccc5c(c4)CN(C)C5=O)s3)c2)cc1,8.16 µM
3,CN1Cc2cc(-c3ccc(-c4cncc(NS(=O)(=O)c5ccc(C(=O)O)cc5)c4)s3)ccc2C1=O,0.75 µM
4,CN1Cc2cc(-c3ccc(-c4cncc(NS(=O)(=O)c5ccccc5S(C)(=O)=O)c4)s3)ccc2C1=O,6.8 µM
5,CN1Cc2cc(-c3ccc(-c4cncc(NS(=O)(=O)c5ccc(S(C)(=O)=O)cc5)c4)s3)ccc2C1=O,> 20 µM
6,CN1Cc2cc(-c3ccc(-c4cncc(NS(=O)(=O)c5ccc([N+](=O)[O-])cc5)c4)s3)ccc2C1=O,2.74 µM
7,Cc1cc(F)ccc1S(=O)(=O)Nc1cncc(-c2ccc(-c3ccc4c(c3)CN(C)C4=O)s2)c1,5.53 µM
8,CN1Cc2cc(-c3ccc(-c4cncc(NS(=O)(=O)c5ccc(F)c(C(F)(F)F)c5)c4)s3)ccc2C1=O,3.75 µM
9,CN1Cc2cc(-c3ccc(-c4cncc(NS(=O)(=O)c5cc(Br)cc(C(F)(F)F)c5)c4)s3)ccc2C1=O,> 20 µM
10,CN1Cc2cc(-c3ccc(-c4cncc(NS(=O)(=O)c5ccccn5)c4)s3)ccc2C1=O,1.07 µM
11,CN1Cc2cc(-c3ccc(-c4cncc(NS(=O)(=O)c5ccsc5)c4)s3)ccc2C1=O,12.5 µM
12,CN1Cc2cc(-c3ccc(-c4cncc(NS(=O)(=O)c5ccc(-c6ccno6)s5)c4)s3)ccc2C1=O,7.1 µM
13,Cc1cc(C)n(-c2ccc(S(=O)(=O)Nc3cncc(-c4ccc(-c5ccc6c(c5)CN(C)C6=O)s4)c3)cc2)n1,19.1 µM
14,Cc1ncsc1S(=O)(=O)Nc1cncc(-c2ccc(-c3ccc4c(c3)CN(C)C4=O)s2)c1,11.6 µM
15,CN1Cc2cc(-c3ccc(-c4cncc(NS(=O)(=O)c5ccccc5)c4)s3)ccc2C1=O,8.46 µM
16,Cc1ccc(NS(=O)(=O)c2ccc(F)cc2F)cc1-c1ccc(-c2ccc3c(c2)CN(C)C3=O)s1,> 20 µM
17,CN1Cc2cc(-c3ccc(-c4cncc(NS(=O)(=O)c5ccccc5Cl)c4)s3)ccc2C1=O,4.01 µM
18,CN1Cc2cc(-c3ccc(-c4cncc(NS(=O)(=O)c5ccc(Br)cc5)c4)s3)ccc2C1=O,8.77 µM
19,CN1Cc2cc(-c3ccc(-c4cccc(NS(=O)(=O)c5ccc(F)cc5F)c4)s3)ccc2C1=O,5.74 µM
20,CN1Cc2cc(-c3ccc(-c4cncc(NS(=O)(=O)c5cccs5)c4)s3)ccc2C1=O,1.07 µM
21,CN1Cc2cc(-c3ccc(-c4cncc(N(C)S(=O)(=O)c5ccc(F)cc5F)c4)s3)ccc2C1=O,16.1 µM
22,CN1Cc2cc(-c3ccc(-c4cncc(NS(=O)(=O)c5ccc(C(F)(F)F)cc5Cl)c4)s3)ccc2C1=O,> 20 µM
